Test results as given in ChEMBL document CHEMBL4814047, “Design, synthesis and biological activity of N-(amino)piperazine-containing benzothiazinones against Mycobacterium tuberculosis” (Eur J Med Chem, 2021).
Values after ≈ are worked out from the molar mass of the structure shown.

What was measured:
[1] = tested on: Mycobacterium tuberculosis; assay: Antimycobacterial activity against multidrug resistance Mycobacterium tuberculosis 16995 clinical isolate incubated for 7 days by microplate alamar blue assay; format: functional; details: Mycobacterium tuberculosis, 16995, 168 h; time 7 day
[2] = tested on: Mycobacterium tuberculosis; assay: Antimycobacterial activity against multidrug resistance Mycobacterium tuberculosis 16833 clinical isolate incubated for 7 days by microplate alamar blue assay; format: functional; details: Mycobacterium tuberculosis, 16833, 168 h; time 7 day
[3] = Selectivity index, ratio of CC50 for African green monkey Vero cells to MIC for multidrug resistance Mycobacterium tuberculosis 16995 clinical isolate; format: toxicity; details: read-out: Selectivity Index

Row | SMILES | MIC [1] [µg/mL] | MIC [2] [µg/mL] | selectivity ratio [3]
1 | CC(c1ccc(OC(F)(F)F)cc1)N(C)N1CCN(c2nc(=O)c3cc(C(F)(F)F)cc([N+](=O)[O-])c3s2)CC1 (configuration not stated) | < 0.016 | < 0.016 | > 4000
2 | O=c1nc(N2CCN(NCC3CCCCC3)CC2)sc2c([N+](=O)[O-])cc(C(F)(F)F)cc12 | < 0.016 | < 0.016 | > 1830
3 | CN(c1ccc(OC(F)(F)F)cc1)N1CCN(c2nc(=O)c3cc(C(F)(F)F)cc([N+](=O)[O-])c3s2)CC1 | < 0.016 | < 0.016 | > 4000
4 | Cc1ccc(CNN2CCN(c3nc(=O)c4cc(C(F)(F)F)cc([N+](=O)[O-])c4s3)CC2)cc1 | < 0.016 | < 0.016 | > 4000
5 | O=c1nc(N2CCN(NCc3cc(F)cc(F)c3)CC2)sc2c([N+](=O)[O-])cc(C(F)(F)F)cc12 | < 0.016 | < 0.016 | > 4000
6 | O=c1nc(N2CCN(Nc3ccc(C(F)(F)F)cc3)CC2)sc2c([N+](=O)[O-])cc(C(F)(F)F)cc12 | < 0.016 | < 0.016 | > 4000
7 | O=c1nc(N2CCN(NCCC3CCCCC3)CC2)sc2c([N+](=O)[O-])cc(C(F)(F)F)cc12 | 0.0294 (≈ 0.0606 µM) | 0.0357 (≈ 0.0735 µM) | > 2180
8 | O=c1nc(N2CCN(NCc3ccc(C(F)(F)F)cc3)CC2)sc2c([N+](=O)[O-])cc(C(F)(F)F)cc12 | < 0.016 | < 0.016 | > 4000
9 | O=c1nc(N2CCN(NCc3ccc(Br)cc3)CC2)sc2c([N+](=O)[O-])cc(C(F)(F)F)cc12 | < 0.016 | < 0.016 | > 4000
10 | CN(CC1CCCCC1)N1CCN(c2nc(=O)c3cc(C(F)(F)F)cc([N+](=O)[O-])c3s2)CC1 | < 0.016 | < 0.016 | > 4000
11 | CC(C)(C)c1ccc(CNN2CCN(c3nc(=O)c4cc(C(F)(F)F)cc([N+](=O)[O-])c4s3)CC2)cc1 | < 0.016 | < 0.016 | > 4000
12 | COc1ccc(CNN2CCN(c3nc(=O)c4cc(C(F)(F)F)cc([N+](=O)[O-])c4s3)CC2)cc1 | 0.0271 (≈ 0.0547 µM) | < 0.016 | > 2360
13 | O=c1nc(N2CCN(NCc3ccc(F)cc3)CC2)sc2c([N+](=O)[O-])cc(C(F)(F)F)cc12 | < 0.016 | < 0.016 | > 4000
14 | O=c1nc(N2CCN(Nc3ccc(OC(F)(F)F)cc3)CC2)sc2c([N+](=O)[O-])cc(C(F)(F)F)cc12 | < 0.016 | < 0.016 | > 4000
15 | O=c1nc(N2CCN(/N=C/c3ccc(OC(F)(F)F)cc3)CC2)sc2c([N+](=O)[O-])cc(C(F)(F)F)cc12 | < 0.016 | < 0.016 | > 4000
16 | O=c1nc(N2CCN(CC3CCCCC3)CC2)sc2c([N+](=O)[O-])cc(C(F)(F)F)cc12 [MACOZINONE] | < 0.016 | < 0.016 | > 4000
17 | CO[C@H]1/C=C/O[C@@]2(C)Oc3c(C)c(O)c4c(O)c(c(/C=N/N5CCN(C)CC5)c(O)c4c3C2=O)NC(=O)/C(C)=C\C=C\[C@H](C)[C@H](O)[C@@H](C)[C@@H](O)[C@@H](C)[C@H](OC(C)=O)[C@@H]1C [RIFAMPIN] | > 10 | > 10 | 
18 | O=c1nc(N2CCN(NCc3ccc(OC(F)(F)F)cc3)CC2)sc2c([N+](=O)[O-])cc(C(F)(F)F)cc12 | < 0.016 | < 0.016 | > 4000
19 | NNC(=O)c1ccncc1 [ISONIAZID] | > 10 | > 10 | 
20 | Cc1cccc(F)c1CNN1CCN(c2nc(=O)c3cc(C(F)(F)F)cc([N+](=O)[O-])c3s2)CC1 | 0.0163 (≈ 0.0328 µM) | 0.0152 (≈ 0.0306 µM) | > 3930
21 | O=c1nc(N2CCN(NC3CCCCC3)CC2)sc2c([N+](=O)[O-])cc(C(F)(F)F)cc12 | < 0.016 | < 0.016 | > 4000
22 | CON=C1CCC(N(C)N2CCN(c3nc(=O)c4cc(C(F)(F)F)cc([N+](=O)[O-])c4s3)CC2)CC1 (configuration not stated) | < 0.016 | < 0.016 | > 4000
23 | CC(C)CN(CC(C)C)N1CCN(c2nc(=O)c3cc(C(F)(F)F)cc([N+](=O)[O-])c3s2)CC1 | < 0.016 | < 0.016 | > 4000
24 | CC(NN1CCN(c2nc(=O)c3cc(C(F)(F)F)cc([N+](=O)[O-])c3s2)CC1)c1ccc(OC(F)(F)F)cc1 (configuration not stated) | 0.0177 (≈ 0.0314 µM) | 0.0196 (≈ 0.0348 µM) | > 3620
25 | C/C(=N\N1CCN(c2nc(=O)c3cc(C(F)(F)F)cc([N+](=O)[O-])c3s2)CC1)c1ccc(OC(F)(F)F)cc1 | < 0.016 | < 0.016 | > 4000
26 | O=c1nc(N2CCN(NCc3cccc(C(F)(F)F)c3)CC2)sc2c([N+](=O)[O-])cc(C(F)(F)F)cc12 | < 0.016 | < 0.016 | > 4000
27 | O=c1nc(N2CCN(NCc3ccc(Cl)cc3)CC2)sc2c([N+](=O)[O-])cc(C(F)(F)F)cc12 | < 0.016 | < 0.016 | > 4000
28 | O=c1nc(N2CCN(NCC3CCCC3)CC2)sc2c([N+](=O)[O-])cc(C(F)(F)F)cc12 | < 0.016 | < 0.016 | > 4000
